According to PubChem BioAssay (NCI):
Values joined by “and” are separate entries in the source; they are usually repeats but may differ in a detail not shown here. Equal entries are not always repeated.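 Following 48 hours of exposure in 96-well plates, responses at five concentrations were used to interpolate endpoints linearly. Abbreviation: GI50, concentration required for 50% inhibition of growth. TGI marks complete inhibition of growth.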

Legend:
Test in all cases: growth of human tumour cells (NCI), 48 h
DU-145 prostate = test system: DU-145 prostate
HS 578T breast = test system: HS 578T breast
IGROV1 ovarian = test system: IGROV1 ovarian
K-562 leukemia = test system: K-562 leukemia
NCI-H23 lung = test system: NCI-H23 lung
OVCAR-4 ovarian = test system: OVCAR-4 ovarian
SF-539 CNS = test system: SF-539 CNS
SK-MEL-5 melanoma = test system: SK-MEL-5 melanoma
SN12C renal = test system: SN12C renal
U251 CNS = test system: U251 CNS

| Compound | TGI (DU-145 prostate) [µM] | TGI (HS 578T breast) | TGI (IGROV1 ovarian) | TGI (K-562 leukemia) [µM] | TGI (NCI-H23 lung) [µM] | TGI (OVCAR-4 ovarian) [µM] | TGI (SF-539 CNS) | TGI (SK-MEL-5 melanoma) [µM] | TGI (SN12C renal) [µM] | TGI (U251 CNS) | GI50 (DU-145 prostate) | GI50 (HS 578T breast) | GI50 (IGROV1 ovarian) | GI50 (K-562 leukemia) | GI50 (NCI-H23 lung) | GI50 (OVCAR-4 ovarian) | GI50 (SF-539 CNS) | GI50 (SK-MEL-5 melanoma) | GI50 (SN12C renal) | GI50 (U251 CNS) |
| --- | --- | --- | --- | --- | --- | --- | --- | --- | --- | --- | --- | --- | --- | --- | --- | --- | --- | --- | --- | --- |
| Cc1ccc(S(=O)(=O)CC2(Br)CCc3ccccc3C2=O)cc1 (stereo not given) | > 100 | > 100 µM | 41 µM | > 100 | > 100 | 50 | > 100 µM | 38.4 | > 100 | 46.8 µM |  |  |  |  |  |  |  |  |  |  |
| O=C1/C(=C/c2ccccc2[N+](=O)[O-])COc2ccc(O)c(O)c21 | 2.36 | 12.6 µM | 2.55 µM | > 100 | 5.22 | 2.29 | 2.99 µM | 3.02 | 6.05 | 5.76 µM | 0.807 µM | 2.05 µM | 0.73 µM | 0.428 µM | 1.54 µM | 0.857 µM | 1.21 µM | 1.53 µM | 0.679 µM | 0.922 µM |
| COc1cc(NC(=O)c2ccccc2Nc2ccnc(C(F)(F)F)c2)cc(OC)c1OC | > 100 | > 100 µM | 89.7 µM | > 100 | > 100 | > 100 | > 100 µM | > 100 | > 100 | > 100 µM | 95.4 µM | 58.8 µM | 35.1 µM | 52.8 µM | 44 µM | 30.6 µM | > 100 µM | 25.4 µM | 52.9 µM | 82.7 µM |
| CCN1C(=O)N(CC)C2C1NN=c1s/c(=C\c3ccc(OC)cc3)c(=O)n12 (stereo not given) | > 29.8 | > 100 µM | > 100 µM | > 100 | > 100 | > 100 | 0.545 µM | 1.64 | > 100 | > 100 µM | 0.323 µM | 0.219 µM | 0.295 µM | 0.053 µM | 0.494 µM | 0.614 µM | 0.103 µM | 0.192 µM | 0.454 µM | 0.244 µM |
| CS(=O)(=O)N1CCc2c(-c3cnc(N)nc3)nc(N3CCOCC3)nc21 | > 45.9 | 3.3 µM and 1.86 µM | 0.443 µM and 0.485 µM | > 100 | > 100 | > 25.7 | 4.13 µM and 3.89 µM | > 30.7 | > 100 | > 10 µM and 23 µM | 0.632 µM and 0.503 µM | 0.324 µM and 0.222 µM | 0.0868 µM and 0.0664 µM | > 6.98 µM and 5.3 µM | 1.94 µM and 1.37 µM | 1.21 µM and 0.945 µM | 0.835 µM and 0.878 µM | 1.78 µM and 1.36 µM | 0.648 µM and 0.667 µM | 1.7 µM and 1.27 µM |
| Cc1cc(C#Cc2ccccc2)ccc1-n1c(/C=C/c2cc(O)ccc2O)nc2ccccc2c1=O | 1.62 | 7.95 µM | 8 µM | 3.82 | 3.12 | 8.5 | 3.44 µM | 2.64 | 3.01 | 2.77 µM | 0.419 µM | 1.54 µM | 2.45 µM | 1.42 µM | 1.48 µM | 2.4 µM | 1.6 µM | 1.35 µM | 1.62 µM | 1.45 µM |
| COC1=CC2CCN3Cc4cc5c(cc4C(C1O)C23)OCC5 (stereo not given) | 21.2 | > 32.7 µM | > 24.8 µM | > 100 | 8.28 | 22.8 | 21.3 µM | 8.89 | 6.08 | 11.4 µM | 2.56 µM | 5.7 µM | 4.59 µM | 3.51 µM | 2.17 µM | 1.33 µM | 3.95 µM | 2.18 µM | 1.06 µM | 1.53 µM |
| C=C1C(=O)C2(C)OC2(C)C1C(=O)O (stereo not given) | > 100 | > 100 µM | > 100 µM | > 100 | > 100 | > 100 | > 100 µM | > 100 | > 100 | > 100 µM |  |  |  |  |  |  |  |  |  |  |
| CCOC(=O)c1cc(-c2ccccc2)[nH]c1N/N=C/c1c(Cl)cccc1Cl | 11.7 | 37.2 µM | 29.3 µM | 13.7 | 40.4 | > 100 | 3.73 µM | 14.1 | > 100 | > 60.4 µM | 1.59 µM | 0.538 µM | 0.752 µM | 0.491 µM | 1.33 µM | 13.4 µM | 0.467 µM | 0.706 µM | 4.3 µM | 1.25 µM |
